Data: patent publication US11771709B2, “ALK protein degradation agent and anti-tumor application thereof” (ShanghaiTech University, priority 2017, dated 2023)
Where two headings read alike, the source gives them in different places.

Experiments:
[1] = tested on: SW48 cell line (EGFR G719S); test: Growth inhibition IC50 in EGFR G719S colorectal cancer cell line SW48; type: cell-based; settings: Homo sapiens, CTG, n = 2, read-out: Half Inhibitory Concentration (IC50) Mean
[2] = tested on: U118MG cells (FIG-ROS1 gene fusion); test: Growth inhibition IC50 in ROS1 mutant glioblastoma cell line U118MG (72 hours); type: cell-based; settings: Homo sapiens, U-118-MG, read-out: Half Inhibitory Concentration (IC50) Mean
MOLM13 cells (FLT3-ITD) = test: Growth inhibition IC50 in FLT3-ITD AML cell line MOLM13; type: cell-based; settings: Homo sapiens
SR (NPM-ALK) cells = test: Growth inhibition IC50 in ALCL SR cells (CCK8/WST, 72 hours); type: cell-based; settings: SR cells, WST
[3] = target: T1, ALK protein in H3122 (EML4-ALK) cells (Homo sapiens, UniProt Q9UM73); test: Western blot of ALK protein level (degradation, DC50), ALK phosphorylation and downstream signaling in H3122 cells; type: cell-based; settings: ALK protein degradation in H3122 cells
T1 construct: EML4 (Echinoderm microtubule-associated protein-like 4, Q9HC35) fusion partner, variant 1; host or cells: NCI-H3122 lung adenocarcinoma cells; the other entry of the earlier key: EML4 (Q9HC35, Echinoderm microtubule-associated protein-like 4)

[4] = tested on: NCI-H3122 (EML4-ALK, V1) cells; test: Growth inhibition IC50 in lung cancer H3122 cells (Cell Titer Blue / Cell Titer Glo); settings: Homo sapiens, NCI-H3122, H3122 cells
[5] = tested on: PC9 (EGFR, exon 19 del) cells; test: Growth inhibition IC50 in EGFR mutant lung adenocarcinoma PC9 cells; type: cell-based; settings: Homo sapiens, PC-9; PC9 cells, CTB, n ≥ 3; read-out: Half Inhibitory Concentration (IC50) Mean
[6] = tested on: PC9Brc1 (EGFR, exon 19 del+T790M) cells; test: Growth inhibition IC50 in EGFR mutant lung cancer PC9Brc1 cells; type: cell-based; settings: CTB, n ≥ 3, read-out: Half Inhibitory Concentration (IC50) Mean
[7] = target: T2, ALK protein in SR (NPM-ALK) cells (Homo sapiens, UniProt Q9UM73); test: Western blot of ALK protein level (degradation, DC50), ALK phosphorylation and downstream signaling in SR cells; type: cell-based; settings: for DC50: ALK protein degradation in SR cells
T2 construct: NPM (nucleophosmin, NPM1, P06748) fusion partner; host or cells: SR (ALCL) cells; the other entry of the earlier key: NPM1 (P06748, Nucleophosmin)

[8] = MOLM-13, read-out: Half Inhibitory Concentration (IC50) Mean
[9] = Ceritinib based ALK PROTAD compounds (Table 5)
[10] = 72 h, Brigatinib-based PROTAD molecules (Table 3)

T1 sequence (Q9UM73 with tags, fused parts or gaps): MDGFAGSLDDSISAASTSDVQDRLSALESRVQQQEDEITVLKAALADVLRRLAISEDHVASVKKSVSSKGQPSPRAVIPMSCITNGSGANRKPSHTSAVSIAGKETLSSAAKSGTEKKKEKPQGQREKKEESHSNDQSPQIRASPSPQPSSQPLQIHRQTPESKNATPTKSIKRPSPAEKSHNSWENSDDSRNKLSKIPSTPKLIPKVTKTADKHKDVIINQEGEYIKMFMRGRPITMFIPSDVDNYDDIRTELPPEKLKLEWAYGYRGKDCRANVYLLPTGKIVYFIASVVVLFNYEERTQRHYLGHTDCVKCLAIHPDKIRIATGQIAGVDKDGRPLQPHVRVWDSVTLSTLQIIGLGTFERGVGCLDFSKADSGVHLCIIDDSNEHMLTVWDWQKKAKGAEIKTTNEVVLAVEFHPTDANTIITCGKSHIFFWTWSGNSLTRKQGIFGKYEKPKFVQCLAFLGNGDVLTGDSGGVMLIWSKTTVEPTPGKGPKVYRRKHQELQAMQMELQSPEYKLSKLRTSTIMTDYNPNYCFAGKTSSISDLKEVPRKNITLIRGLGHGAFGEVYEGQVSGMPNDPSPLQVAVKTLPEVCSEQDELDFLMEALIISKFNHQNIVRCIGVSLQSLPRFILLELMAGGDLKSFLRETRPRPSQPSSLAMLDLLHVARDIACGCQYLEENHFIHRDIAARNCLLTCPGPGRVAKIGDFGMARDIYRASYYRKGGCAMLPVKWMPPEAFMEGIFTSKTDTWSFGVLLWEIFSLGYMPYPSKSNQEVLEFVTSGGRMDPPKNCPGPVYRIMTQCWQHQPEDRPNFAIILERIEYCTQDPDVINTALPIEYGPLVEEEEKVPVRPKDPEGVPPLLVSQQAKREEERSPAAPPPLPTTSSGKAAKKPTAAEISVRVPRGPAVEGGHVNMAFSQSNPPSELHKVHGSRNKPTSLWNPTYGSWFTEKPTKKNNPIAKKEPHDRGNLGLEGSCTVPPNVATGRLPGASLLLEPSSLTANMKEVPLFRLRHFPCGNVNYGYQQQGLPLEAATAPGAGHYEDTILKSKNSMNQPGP
T2 sequence (Q9UM73 with tags, fused parts or gaps): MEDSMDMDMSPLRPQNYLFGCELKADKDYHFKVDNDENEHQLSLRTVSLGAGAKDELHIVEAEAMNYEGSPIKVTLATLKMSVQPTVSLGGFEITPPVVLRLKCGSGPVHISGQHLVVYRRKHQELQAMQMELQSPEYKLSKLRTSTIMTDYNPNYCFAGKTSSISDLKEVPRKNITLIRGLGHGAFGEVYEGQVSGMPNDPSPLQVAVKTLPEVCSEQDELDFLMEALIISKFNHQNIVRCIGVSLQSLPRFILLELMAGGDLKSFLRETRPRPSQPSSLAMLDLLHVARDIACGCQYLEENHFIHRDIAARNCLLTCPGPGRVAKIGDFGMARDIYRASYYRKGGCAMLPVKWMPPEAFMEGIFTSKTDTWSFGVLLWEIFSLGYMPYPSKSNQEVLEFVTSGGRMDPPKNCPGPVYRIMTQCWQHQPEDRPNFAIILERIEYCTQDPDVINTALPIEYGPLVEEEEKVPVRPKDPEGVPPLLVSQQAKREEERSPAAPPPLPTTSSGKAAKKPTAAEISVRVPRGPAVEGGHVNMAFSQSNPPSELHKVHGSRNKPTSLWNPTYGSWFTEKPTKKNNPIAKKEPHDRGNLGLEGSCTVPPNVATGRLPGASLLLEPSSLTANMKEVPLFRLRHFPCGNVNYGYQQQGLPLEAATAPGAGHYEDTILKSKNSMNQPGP

DC50 [3] | IC50 ([4]; CTB (Cell Titer Blue)) | IC50 [5] | IC50 [6] | DC50 [7] | SMILES | IC50 (SR (NPM-ALK) cells; [10]) | other results
1 to 10 nM | – | 434 nM | 2440 nM | 0.1 to 0.5 nM | COc1cc(N2CCC(N3CCN(C(=O)CCCCNc4cccc5c4C(=O)N(C4CCC(=O)NC4=O)C5=O)CC3)CC2)ccc1Nc1ncc(Cl)c(Nc2ccccc2P(C)(C)=O)n1 (stereo not shown) [SIAIS164021, 4-((5-(4-(1-(4-((5-chloro-4-((2-(dimethylphosphoryl)phenyl)amino)pyrimidin-2-yl)amino)-3-methoxyphenyl)piperidin-4-yl)piperazin-1-yl)-5-oxopentyl)amino)-2-(2,6-dioxopiperidin-3-yl)isoindoline-1,3-dione] | 7.4 ± 5 nM | concentration at which ALK proteins were degraded ([7]; SR cells, western blot): 1 nM
1 to 10 nM | – | 233 nM | 696 nM | 1 to 10 nM | COc1cc(N2CCC(N3CCN(C(=O)CCCCCNc4cccc5c4C(=O)N(C4CCC(=O)NC4=O)C5=O)CC3)CC2)ccc1Nc1ncc(Cl)c(Nc2ccccc2P(C)(C)=O)n1 (stereo not shown) [SIAIS164022, 4-((6-(4-(1-(4-((5-chloro-4-((2-(dimethylphosphoryl)phenyl)amino)pyrimidin-2-yl)amino)-3-methoxyphenyl)piperidin-4-yl)piperazin-1-yl)-6-oxohexyl)amino)-2-(2,6-dioxopiperidin-3-yl)isoindoline-1,3-dione] | 3.3 ± 2.2 nM | –
0.02 to 1 nM | – | 321 nM | 1280 nM | 1 to 10 nM | COc1cc(N2CCC(NC(=O)CCCCCCC(=O)N[C@H](C(=O)N3C[C@H](O)C[C@H]3C(=O)NCc3ccc(-c4scnc4C)cc3)C(C)(C)C)CC2)ccc1Nc1ncc(Cl)c(Nc2ccccc2P(C)(C)=O)n1 [SIAIS164147, N1-(1-(4-((5-chloro-4-((2-(dimethylphosphoryl)phenyl)amino)pyrimidin-2-yl)amino)-3-methoxyphenyl)piperidin-4-yl)-N8-((S)-1-((2S,4R)-4-hydroxy-2-((4-(4-methylthiazol-5-yl)benzyl)carbamoyl)pyrrolidin-1-yl)-3,3-dimethyl-1-oxobutan-2-yl)octanediamide] | 2 ± 1.2 nM | –
1 to 50 nM | – | 153 nM | 1340 nM | 1 to 10 nM | COc1cc(N2CCC(NC(=O)CCCCCCCC(=O)N[C@H](C(=O)N3C[C@H](O)C[C@H]3C(=O)NCc3ccc(-c4scnc4C)cc3)C(C)(C)C)CC2)ccc1Nc1ncc(Cl)c(Nc2ccccc2P(C)(C)=O)n1 [SIAIS164148] | 1.5 ± 0.8 nM | –
– | – | 187 nM | 988 nM | 1 to 10 nM | COc1cc(N2CCC(NC(=O)CCCCCCCCC(=O)N[C@H](C(=O)N3C[C@H](O)C[C@H]3C(=O)NCc3ccc(-c4scnc4C)cc3)C(C)(C)C)CC2)ccc1Nc1ncc(Cl)c(Nc2ccccc2P(C)(C)=O)n1 [SIAIS164149, N1-(1-(4-((5-chloro-4-((2-(dimethylphosphoryl)phenyl)amino)pyrimidin-2-yl)amino)-3-methoxyphenyl)piperidin-4-yl)-N10-((S)-1-((2S,4R)-4-hydroxy-2-((4-(4-methylthiazol-5-yl)benzyl)carbamoyl)pyrrolidin-1-yl)-3,3-dimethyl-1-oxobutan-2-yl)decanediamide] | 2.3 ± 2 nM | DC50 (nM)) in H3122 [3]: 0.02 to 20 nM

More lines, now with the values behind:

SMILES | DC50 [3] | IC50 ([4]; CTB (Cell Titer Blue)) | IC50 [5] | IC50 [6] | DC50 [7] | IC50 (SR (NPM-ALK) cells; [10]) | other results
CCc1cc2c(cc1N1CCC(N3CCOCC3)CC1)C(C)(C)c1[nH]c3cc(C#N)ccc3c1C2=O [Alectinib, reference compound] | – | – | – | – | – | – | IC50 [1]: 800 nM; IC50 ([2]; 72 h): 1480 nM; IC50 (MOLM13 cells (FLT3-ITD); [8]): 255 nM
C[C@@H](Oc1cc(-c2cnn(C3CCNCC3)c2)cnc1N)c1c(Cl)ccc(F)c1Cl [Crizotinib, reference compound] | – | – | – | – | – | – | IC50 ([2]; 72 h): 2570 nM; IC50 (MOLM13 cells (FLT3-ITD); [8]): 291 nM
Cc1cc(Nc2ncc(Cl)c(Nc3ccccc3S(=O)(=O)C(C)C)n2)c(OC(C)C)cc1C1CCN(C(=O)CCOCCOCCOCCNc2cccc3c2C(=O)N(C2CCC(=O)NC2=O)C3=O)CC1 (stereo not shown) [SIAIS151028, 4-((2-(2-(2-(3-(4-(4-((5-chloro-4-((2-(isopropylsulfonyl)phenyl)amino)pyrimidin-2-yl)amino)-5-isopropoxy-2-methylphenyl)piperidin-1-yl)-3-oxopropoxy)ethoxy)ethoxy)ethyl)amino)-2-(2,6-dioxopiperidin-3-yl)isoindoline-1,3-dione] | 20 to 100 nM | 6 nM | – | – | – | – | IC50 (SR (NPM-ALK) cells; [9]): 38 nM; IC50 ([4]; CTG (Cell Titer Glo)): 80 nM
Cc1cc(Nc2ncc(Cl)c(Nc3ccccc3S(=O)(=O)C(C)C)n2)c(OC(C)C)cc1C1CCN(C(=O)CCOCCNc2cccc3c2C(=O)N(C2CCC(=O)NC2=O)C3=O)CC1 (stereo not shown) [SIAIS151031, 4-((2-(3-(4-(4-((5-chloro-4-((2-(isopropylsulfonyl)phenyl)amino)pyrimidin-2-yl)amino)-5-isopropoxy-2-methylphenyl)piperidin-1-yl)-3-oxopropoxy)ethyl)amino)-2-(2,6-dioxopiperidin-3-yl)isoindoline-1,3-dione] | 100 to 500 nM | 7 nM | – | – | – | – | IC50 (SR (NPM-ALK) cells; [9]): 85 nM; IC50 ([4]; CTG (Cell Titer Glo)): 81 nM
Cc1cc(Nc2ncc(Cl)c(Nc3ccccc3S(=O)(=O)C(C)C)n2)c(OC(C)C)cc1C1CCN(C(=O)CCCNc2cccc3c2C(=O)N(C2CCC(=O)NC2=O)C3=O)CC1 (stereo not shown) [SIAIS151035, 4-((4-(4-(4-((5-chloro-4-((2-(isopropylsulfonyl)phenyl)amino)pyrimidin-2-yl)amino)-5-isopropoxy-2-methylphenyl)piperidin-1-yl)-4-oxobutyl)amino)-2-(2,6-dioxopiperidin-3-yl)isoindoline-1,3-dione] | 50 to 100 nM | 33 nM | – | – | – | – | –
Cc1cc(Nc2ncc(Cl)c(Nc3ccccc3S(=O)(=O)C(C)C)n2)c(OC(C)C)cc1C1CCN(C(=O)CNc2cccc3c2C(=O)N(C2CCC(=O)NC2=O)C3=O)CC1 (stereo not shown) [SIAIS151037, 4-((2-(4-(4-((5-chloro-4-((2-(isopropylsulfonyl)phenyl)amino)pyrimidin-2-yl)amino)-5-isopropoxy-2-methylphenyl)piperidin-1-yl)-2-oxoethyl)amino)-2-(2,6-dioxopiperidin-3-yl)isoindoline-1,3-dione] | 50 to 100 nM | 151 nM | – | – | – | – | –
COc1cc(N2CCC(N3CCN(C(=O)CCOCCNc4cccc5c4C(=O)N(C4CCC(=O)NC4=O)C5=O)CC3)CC2)ccc1Nc1ncc(Cl)c(Nc2ccccc2P(C)(C)=O)n1 (stereo not shown) [SIAIS164007, 4-((2-(3-(4-(1-(4-((5-chloro-4-((2-(dimethylphosphoryl)phenyl)amino)pyrimidin-2-yl)amino)-3-methoxyphenyl)piperidin-4-yl)piperazin-1-yl)-3-oxopropoxy)ethyl)amino)-2-(2,6-dioxopiperidin-3-yl)isoindoline-1,3-dione] | 10 to 50 nM | – | 358 nM | 1610 nM | 1 to 10 nM | 3.8 ± 1.9 nM | –
COc1cc(N2CCC(N3CCN(C(=O)CNc4cccc5c4CN(C4CCC(=O)NC4=O)C5=O)CC3)CC2)ccc1Nc1ncc(Cl)c(Nc2ccccc2P(C)(C)=O)n1 (stereo not shown) [SIAIS219073, 3-(4-((2-(4-(1-(4-((5-chloro-4-((2-(dimethylphosphoryl)phenyl)amino)pyrimidin-2-yl)amino)-3-methoxyphenyl)piperidin-4-yl)piperazin-1-yl)-2-oxoethyl)amino)-1-oxoisoindolin-2-yl)piperidine-2,6-dione] | – | – | – | – | – | 1.8 ± 1 nM | IC50 [1]: > 20000 nM; IC50 ([2]; U118MG cells, 72 hours, n = 2, reagent CTG): > 20000 nM; IC50 (MOLM13 cells (FLT3-ITD); MOLM-13, MOLM13 cells, n = 2, reagent CTG, read-out: Half Inhibitory Concentration (IC50) Mean): 373 nM
